Experimental data taken from patent publication US20140243239A1, “MULTIPLEXED KINASE INHIBITOR BEADS AND USES THEREOF” (University of North Carolina at Chapel Hill, priority 2011, published 2014).

What was measured:
Type in all cases: cell-based, human
MDA-MB-231 cells = experiment: MDA-MB-231 cell growth (Cell-Titer Glo); details: 5 μM MEK inhibitor (FIG. 9A)
Protocol: Cell Culture: MDA-MB-231 cells were grown in DMEM/F12 supplemented with 10% FBS. SUM-159 cells were grown in DMEM/F12 supplemented with 10% FBS 1 μg/mL hydrocortisone, and 5 μg/mL insulin. SUM159-R cells were continually grown in the presence of 5 μM AZD6244. For SILAC labeling, cells were grown for five doublings in arginine- and lysine-depleted media (as above) supplemented with either unlabeled L-arginine (42 mg/L) and L-lysine (71 mg/L) or equimolar amounts of heavy isotope labeled [13C6,15N4]arginine (Arg10) and [13C6]lysine (Lys6) (Cambridge Isotope Laboratories). Proliferation was quantified using Cell-Titer Glo Luminescent Cell Viability Assay (Promega). Fresh media containing DMSO or kinase inhibitors was added daily and experiments were performed in triplicate.

ERK1/2 = experiment: ERK activity in SUM159-R cells (western blot)
Protocol: Detailed methods and antibodies are provided in Supplemental Experimental Procedures.
Generation of AZD6244 resistant SUM159 cells: SUM159 cells were cultured in DMEM/F12 supplemented with 10% FBS media containing 5 μM AZD6244. Media was changed every 2 days, maintaining inhibitor concentrations of 5 μM AZD6244.
Western blotting: Proteins from cell lysates were separated by SDS-PAGE chromatography, transferred to nitrocellulose membranes, and probed with the indicated primary antibodies. Antibodies recognizing pAKT (S473), pAKT (T308), AURA, pAXL (Y702), AXL, c-Myc, DDR1, EGFR, pERK1/2 (T202/Y204), pHER3 (Y1197), MAX, pMEK1/2 (S217/S221), MEK1/2, MKP3, pP70S6K (T389), pPDGFRβ (Y751), pPDGFRβ (Y1009), pPDGFR (Y857), PDGFRβ, pRAF (S338), pRSK1 (T359/S363), pVEGFR2 (Y1175), VEGFR2 were obtained from Cell Signaling Technology. Antibodies for Cyclin A2, Cyclin B1, Cyclin D1, ERK2, RAF, and pRAF (S259) were obtained from Santa Cruz Biotechnology. The antibody recognizing Bim was obtained from Chemicon. The antibody recognizing p-c-Myc (S62) was obtained from Abeam. Secondary HRP-anti-rabbit and HRP-anti-goat secondary antibodies were from Jackson Immunoresearch Laboratories and Santa Cruz Biotechnology, respectively. Western blots were visualized by incubation with SuperSignal West Pico Chemiluminescent Substrate (Thermo Scientific).

[1] = test system: kinome (kinase binding to MIBs) of SUM159 cells; experiment: MIB/MS kinome profiling of inhibitor-treated SUM159 cells
Excerpt: Multiplexed inhibitor bead affinity chromatography: Cells and tumors were lysed and harvested as previously described (Oppermann et al., 2009). Oppermann et al., 2009 Mol Cell Proteo 8 1751-1764. Briefly, lysates were brought to 1 M NaCl and passed through columns of washed inhibitor-conjugated beads (bisindoylmaleimide-X, SB203580, lapatinib, dasatinib, purvalanol B, VI16832, PP58) to isolate protein kinases from the lysates (see Supplemental Experimental Procedures for MIBs preparation). Kinase-bound inhibitor beads were washed with high-salt buffer and 0.1% SDS before elution in 0.5% SDS solution in high heat. Proteins were purified using chloroform/methanol extraction, resuspended in 50 mM ammonium bicarbonate (pH 8.0) or 50 mM HEPES (pH 8.0) for SILAC or iTRAQ respectfully. Samples were digested overnight at 37° C. with sequencing grade modified trypsin (Promega). iTRAQ labeling of digested peptides was carried out using iTRAQ 4-plex reagent (AB SCIEX) for 2 hrs at room temperature in the dark. Peptides were dried down, separated using Strong Cation Exchange Spin Columns, Mini and isolated with PepClean C-18 Spin Columns (Thermo Scientific).
LC-MS/MS analysis: MS and MS/MS data were acquired using a MALDI TOF/TOF 5800 (AB SCIEX). Peptides were analyzed using ProteinPilot Software Version 3.0 (AB SCIEX) and identification using UniProtKB/Swiss-Prot database (release Oct. 15, 2009). Proteins were only accepted when at least 1 unique peptide was identified at 99% confidence. ProteinPilot software 3.0 identified and quantified changes in kinase binding to MIBs utilizing the Pro Group Algorithm. […] For each protein ratio reported, a p-value is computed based on Student's t-distribution under the null hypothesis that the protein ratio is 1. MIB/MS analysis with cell lines was done in 2-3 independent experiments. A set of three independent experiments using SILAC labeled SUM159 cells treated with AZD6244 or DMSO was used to assess statistical significance and reproducibility of MIBs/MS to profile kinome response (Supplementary Methods).
Cells were lysed on ice for 20 minutes in lysis buffer containing 50 mM HEPES (pH 7.5), 0.5% Triton X-100, 150 mM NaCl, 1 mM EDTA, 1 mM EGTA, 10 mM sodium fluoride, 2.5 mM sodium orthovanadate, 50 ng/mL calyculin A, 1× protease inhibitor cocktail (Roche), and 1% each of phosphatase inhibitor cocktails 2 and 3 (Sigma). Cell lysate was sonicated (3×10 s) on ice and centrifuged for 15 minutes (13,000 rpm) at 4° C. and the supernatant was collected and syringe-filtered through a […] SFCA membrane. The filtered lysate (approximately 40 mg or protein per experiment) was brought to 1 M NaCl and pre-cleared by flowing over 500 μL of blocked and washed NHS-activated Sepharose 4 Fast Flow beads (GE Healthcare). The flow-through was collected and passed through a column of layered inhibitor-conjugated beads (Bisindoylmaleimide-X (50 μL), SB203580 (50 Lapatinib (100 μL), Dasatinib (100 μL), Purvalanol B (100 μL), VI16832 (100 μL), PP58 (100 4)) to isolate protein kinases from the lysates. Kinase-bound inhibitor beads were washed with 20 mL of high-salt buffer and 10 mL of low-salt buffer, each containing 50 mM HEPES (pH 7.5), 0.5% Triton X-100, 1 mM EDTA, 1 mM EGTA, and 10 mM sodium fluoride, and 1 M NaCl or 150 mM NaCl, respectively. A final wash of 1 mL 0.1% SDS was applied to the columns before elution in 1 mL of a 0.5% SDS solution in high heat. Elutions from all columns were combined and cysteines were alkylated by sequential incubations with DTT (final concentration 5 mM) for 20 minutes at 60° C. and iodoacetamide (final concentration 20 mM) for 30 minutes at room temperature in the dark. The elution was spin-concentrated to 100 μL and detergents were removed by a chloroform/methanol extraction. […]

[2] = 5 μM AZD6244, SILAC, TiO2 enrichment of MIB elutions

With `Cn1cnc2c(F)c(Nc3ccc(Br)cc3Cl)c(C(=O)NOCCO)cc21` [AZD6244] the “growth of MDA-MB-231 cells” value (MDA-MB-231 cells) was “inhibited growth”, the “ERK activation in SUM159-R cells” value (ERK1/2; 25 μM AZD6244) was “inhibited ERK activation” and the “ERK activity in SUM159-R cells” value (ERK1/2; 50 μM AZD6244) was “can be inhibited”. The “peptides of MIB isolated kinases with decreased phosphorylation” value [1, 2] was 52 peptides, the “peptides of MIB isolated kinases with increased phosphorylation” value [1, 2] was 59 peptides and the “phosphopeptides of MIB isolated kinases with unchanged phosphorylation status” value [1, 2] was 365 phosphopeptides. The “number of kinases with time-dependent MIB binding changes” value ([1]; 4, 12 and 24 h exposure to AZD6244) was “more than 140 kinases”, the “MEK1 binding to MIBs” value ([1]; 12-24 h, 5 μM AZD6244) was “remains largely inhibited” and the “MEK1 and MEK2, measured by loss of MIB binding” value ([1]; 4 h, 5 μM AZD6244) was “inhibited”. The “MEK2 binding to MIBs, AZD6244/DMSO ratio” value ([1]; 24 h, 5 μM AZD6244) was 1 and the “of the 40 highest expressed kinase transcripts of a patient claudin-low tumor, kinases dynamically regulated in binding to MIBs” value ([1]; SUM159 and/or MDA-MB-231 cells in response to AZD6244) was 14 (24%).
